Ki data for 21 molecules are collected here from patent publication US20230159532A1, “PARATHYROID HORMONE (PTH) RECEPTOR ANTAGONISTS AND USES THEREOF” (Crinetics Pharmaceuticals, Inc., priority 2021, published 2023).

A value given as a limit tells only on which side of the number the result lay.

The target of the experiment is T1, human PTHR1 receptor (Homo sapiens, UniProt Q03431).
T1 construct: purchased Eurofins HTS030M
T1 sequence (Q03431 27-593): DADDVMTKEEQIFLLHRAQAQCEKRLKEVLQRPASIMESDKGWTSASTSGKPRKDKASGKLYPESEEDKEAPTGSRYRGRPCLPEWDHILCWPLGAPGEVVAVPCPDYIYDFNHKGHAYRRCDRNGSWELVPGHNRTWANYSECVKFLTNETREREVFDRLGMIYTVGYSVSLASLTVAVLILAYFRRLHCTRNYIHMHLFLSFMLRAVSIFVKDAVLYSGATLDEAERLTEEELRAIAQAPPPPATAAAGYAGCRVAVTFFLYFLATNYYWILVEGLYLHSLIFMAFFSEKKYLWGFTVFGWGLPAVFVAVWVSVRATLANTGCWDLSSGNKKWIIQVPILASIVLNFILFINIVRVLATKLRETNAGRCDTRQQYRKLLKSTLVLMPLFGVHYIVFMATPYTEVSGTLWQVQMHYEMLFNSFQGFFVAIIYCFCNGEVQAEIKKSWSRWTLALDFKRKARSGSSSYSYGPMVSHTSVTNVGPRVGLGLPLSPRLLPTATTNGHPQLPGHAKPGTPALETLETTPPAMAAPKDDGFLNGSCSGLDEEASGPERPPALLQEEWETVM
Nature of the experiment: Competitive antagonist binding assay for hPTH-R1 (radioactive competition binding, SPA beads). The note with it: human PTHR1 membranes, [125I]-[Nle8,18,Tyr34]-PTH(1-34) 0.2 nM, 90 minutes at room temperature; read-out: hPTHR1 Ki. In a few lines: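 Displacement of 0.2 nM radioiodinated [Nle8,18,Tyr34]-PTH(1-34) from membrane-bound human PTHR1 measured by scintillation proximity after 90 min at room temperature. Compounds typically 0-10,000 nM final, pH 7.4 HEPES/Mg/Ca buffer with BSA and detergent. Ki calculated from competition data.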

Turning to `CNCCNc1cc(F)c(N2C(=O)N(C(C)C)c3ncc(Cl)cc3-c3ccc(C#N)cc32)c(F)c1` [1-91, 4-chloro-10-(2,6-difluoro-4-{[2-(methylamino)ethyl]amino}phenyl)-9-oxo-8-(propan-2-yl)-6,8,10-triazatricyclo[9.4.0.0^2,7]pentadeca-1(11),2(7),3,5,12,14-hexaene-13-carbonitrile], the Ki (in general, a dissociation constant, usually derived from enzyme kinetics or from competition with a known ligand) was under 100 nM.

With `CC(C)N1C(=O)N(c2c(F)cc(NCCNCCO)cc2F)c2cc(C#N)ccc2-c2cc(Cl)cnc21` [1-92, 4-chloro-10-[2,6-difluoro-4-({2-[(2-hydroxyethyl)amino]ethyl}amino)phenyl]-9-oxo-8-(propan-2-yl)-6,8,10-triazatricyclo[9.4.0.0^2,7]pentadeca-1(11),2(7),3,5,12,14-hexaene-13-carbonitrile], the Ki is under 100 nM.

`CC(C)N1C(=O)N(c2c(F)cc(NCCNCCCC(=O)O)cc2F)c2cc(C#N)ccc2-c2cc(Cl)cnc21` [1-93, 4-{[2-({4-[4-chloro-13-cyano-9-oxo-8-(propan-2-yl)-6,8,10-triazatricyclo[9.4.0.0^2,7]pentadeca-1(11),2(7),3,5,12,14-hexaen-10-yl]-3,5-difluorophenyl}amino)ethyl]amino}butanoic acid]: the Ki is under 100 nM.

Regarding `CCN1C(=O)N(c2c(F)cc(NCCNC)cc2F)c2cc(Cl)cc(F)c2-c2cc(F)cnc21` [1-94, 13-chloro-10-(2,6-difluoro-4-{[2-(methylamino)ethyl]amino}phenyl)-8-ethyl-4,15-difluoro-6,8,10-triazatricyclo[9.4.0.0^2,7]pentadeca-1(11),2(7),3,5,12,14-hexaen-9-one], the Ki is under 100 nM.

In the case of `CCN1C(=O)N(c2c(F)cc(NCCNCCO)cc2F)c2cc(Cl)cc(F)c2-c2cc(F)cnc21` [1-95, 13-chloro-10-[2,6-difluoro-4-({2-[(2-hydroxyethyl)amino]ethyl}amino)phenyl]-8-ethyl-4,15-difluoro-6,8,10-triazatricyclo[9.4.0.0^2,7]pentadeca-1(11),2(7),3,5,12,14-hexaen-9-one], the Ki was under 100 nM.

As to `CCN1C(=O)N(c2c(F)cc(NCCNCCCC(=O)O)cc2F)c2cc(Cl)cc(F)c2-c2cc(F)cnc21` [1-96, 4-({2-[(4-{13-chloro-8-ethyl-4,15-difluoro-9-oxo-6,8,10-triazatricyclo[9.4.0.0^2,7]pentadeca-1(11),2(7),3,5,12,14-hexaen-10-yl}-3,5-difluorophenyl)amino]ethyl}amino)butanoic acid], the Ki is under 100 nM.

In the case of `CCN1C(=O)N(c2c(F)cc(NCCNC)cc2F)c2cc(C#N)ccc2-c2cc(C(F)(F)F)cnc21` [1-97, 10-(2,6-difluoro-4-{[2-(methylamino)ethyl]amino}phenyl)-8-ethyl-9-oxo-4-(trifluoromethyl)-6,8,10-triazatricyclo[9.4.0.0^2,7]pentadeca-1(11),2(7),3,5,12,14-hexaene-13-carbonitrile], the Ki was under 100 nM.

In the case of `CCN1C(=O)N(c2c(F)cc(NCCNCCO)cc2F)c2cc(C#N)ccc2-c2cc(C(F)(F)F)cnc21` [1-98, 10-[2,6-difluoro-4-({2-[(2-hydroxyethyl)amino]ethyl}amino)phenyl]-8-ethyl-9-oxo-4-(trifluoromethyl)-6,8,10-triazatricyclo[9.4.0.0^2,7]pentadeca-1(11),2(7),3,5,12,14-hexaene-13-carbonitrile], the Ki is under 100 nM.

Turning to `CCN1C(=O)N(c2c(F)cc(NCCNC)cc2F)c2cc(C#N)cc(F)c2-c2cc(Cl)cnc21` [1-99, 4-chloro-10-(2,6-difluoro-4-{[2-(methylamino)ethyl]amino}phenyl)-8-ethyl-15-fluoro-9-oxo-6,8,10-triazatricyclo[9.4.0.0^2,7]pentadeca-1(11),2(7),3,5,12,14-hexaene-13-carbonitrile], the Ki is under 100 nM.

On to `CCN1C(=O)N(c2c(F)cc(NCCNCCO)cc2F)c2cc(C#N)cc(F)c2-c2cc(Cl)cnc21` [1-100, 4-chloro-10-[2,6-difluoro-4-({2-[(2-hydroxyethyl)amino]ethyl}amino)phenyl]-8-ethyl-15-fluoro-9-oxo-6,8,10-triazatricyclo[9.4.0.0^2,7]pentadeca-1(11),2(7),3,5,12,14-hexaene-13-carbonitrile], for which the Ki was under 100 nM.

In the case of `CCN1C(=O)N(c2c(F)cc(NCCNCCCC(=O)O)cc2F)c2cc(C#N)cc(F)c2-c2cc(Cl)cnc21` [1-101, 4-({2-[(4-{4-chloro-13-cyano-8-ethyl-15-fluoro-9-oxo-6,8,10-triazatricyclo[9.4.0.0^2,7]pentadeca-1(11),2(7),3,5,12,14-hexaen-10-yl}-3,5-difluorophenyl)amino]ethyl}amino)butanoic acid], the Ki was under 100 nM.

Regarding `CCN1C(=O)N(c2c(F)cc(NCCNC)cc2F)c2cc(C#N)cc(F)c2-c2cc(F)cnc21` [1-102, 10-(2,6-difluoro-4-{[2-(methylamino)ethyl]amino}phenyl)-8-ethyl-4,15-difluoro-9-oxo-6,8,10-triazatricyclo[9.4.0.0^2,7]pentadeca-1(11),2(7),3,5,12,14-hexaene-13-carbonitrile], the Ki is under 100 nM.

Take `CCN1C(=O)N(c2c(F)cc(NCCNCCO)cc2F)c2cc(C#N)cc(F)c2-c2cc(F)cnc21` [1-103, 10-[2,6-difluoro-4-({2-[(2-hydroxyethyl)amino]ethyl}amino)phenyl]-8-ethyl-4,15-difluoro-9-oxo-6,8,10-triazatricyclo[9.4.0.0^2,7]pentadeca-1(11),2(7),3,5,12,14-hexaene-13-carbonitrile]: the Ki was under 100 nM.

Take `CCN1C(=O)N(c2c(F)cc(NCCNCCCC(=O)O)cc2F)c2cc(C#N)cc(F)c2-c2cc(F)cnc21` [1-104, 4-({2-[(4-{13-cyano-8-ethyl-4,15-difluoro-9-oxo-6,8,10-triazatricyclo[9.4.0.0^2,7]pentadeca-1(11),2(7),3,5,12,14-hexaen-10-yl}-3,5-difluorophenyl)amino]ethyl}amino)butanoic acid]: the Ki is under 100 nM.

In the case of `CNCCNc1cc(F)c(N2C(=O)N(C(C)C)c3ncc(F)cc3-c3ccc(Cl)cc32)c(F)c1` [1-105, 13-chloro-10-(2,6-difluoro-4-{[2-(methylamino)ethyl]amino}phenyl)-4-fluoro-8-(propan-2-yl)-6,8,10-triazatricyclo[9.4.0.0^2,7]pentadeca-1(11),2(7),3,5,12,14-hexaen-9-one], the Ki is under 100 nM.

Take `CC(C)N1C(=O)N(c2c(F)cc(NCCNCCO)cc2F)c2cc(Cl)ccc2-c2cc(F)cnc21` [1-106, 13-chloro-10-[2,6-difluoro-4-({2-[(2-hydroxyethyl)amino]ethyl}amino)phenyl]-4-fluoro-8-(propan-2-yl)-6,8,10-triazatricyclo[9.4.0.0^2,7]pentadeca-1(11),2(7),3,5,12,14-hexaen-9-one]: the Ki was under 100 nM.

Regarding `CNCCNc1cc(F)c(N2C(=O)N(C(C)C)c3ncc(F)cc3-c3c(F)cc(C#N)cc32)c(F)c1` [1-107, 10-(2,6-difluoro-4-{[2-(methylamino)ethyl]amino}phenyl)-4,15-difluoro-9-oxo-8-(propan-2-yl)-6,8,10-triazatricyclo[9.4.0.0^2,7]pentadeca-1(11),2(7),3,5,12,14-hexaene-13-carbonitrile], the Ki was under 100 nM.

With `CC(C)N1C(=O)N(c2c(F)cc(NCCNCCO)cc2F)c2cc(C#N)cc(F)c2-c2cc(F)cnc21` [1-108, 10-[2,6-difluoro-4-({2-[(2-hydroxyethyl)amino]ethyl}amino)phenyl]-4,15-difluoro-9-oxo-8-(propan-2-yl)-6,8,10-triazatricyclo[9.4.0.0^2,7]pentadeca-1(11),2(7),3,5,12,14-hexaene-13-carbonitrile], the Ki is under 100 nM.

In the case of `CNCCNc1cc(F)c(N2C(=O)N(C)c3ncc(F)cc3-c3c(F)cc(C#N)cc32)c(F)c1` [1-109, 10-(2,6-difluoro-4-{[2-(methylamino)ethyl]amino}phenyl)-4,15-difluoro-8-methyl-9-oxo-6,8,10-triazatricyclo[9.4.0.0^2,7]pentadeca-1(11),2(7),3,5,12,14-hexaene-13-carbonitrile], the Ki was under 100 nM.

In the case of `CN1C(=O)N(c2c(F)cc(NCCNCCO)cc2F)c2cc(C#N)cc(F)c2-c2cc(F)cnc21` [1-110, 10-[2,6-difluoro-4-({2-[(2-hydroxyethyl)amino]ethyl}amino)phenyl]-4,15-difluoro-8-methyl-9-oxo-6,8,10-triazatricyclo[9.4.0.0^2,7]pentadeca-1(11),2(7),3,5,12,14-hexaene-13-carbonitrile], the Ki was under 100 nM.

Take `CNCCNc1cc(F)c(N2C(=O)N(C)c3ncc(F)cc3-c3c(C)cc(C#N)cc32)c(F)c1` [1-111, 10-(2,6-difluoro-4-{[2-(methylamino)ethyl]amino}phenyl)-4-fluoro-8,15-dimethyl-9-oxo-6,8,10-triazatricyclo[9.4.0.0^2,7]pentadeca-1(11),2(7),3,5,12,14-hexaene-13-carbonitrile]: the Ki was under 100 nM.
